From patent US6818765B1, “Benzene-sulphonamide derivatives and their uses” (Universite de Liege, priority 1999, dated 2004)
Read-outs that look alike come from different tables or passages of the source.

Molecular target: T1, thromboxane A2 receptors (TPα) of human platelets (Homo sapiens, UniProt P21731)
T1 construct: endogenous in cells; host or cells: human platelets
T1 sequence (P21731 1-343): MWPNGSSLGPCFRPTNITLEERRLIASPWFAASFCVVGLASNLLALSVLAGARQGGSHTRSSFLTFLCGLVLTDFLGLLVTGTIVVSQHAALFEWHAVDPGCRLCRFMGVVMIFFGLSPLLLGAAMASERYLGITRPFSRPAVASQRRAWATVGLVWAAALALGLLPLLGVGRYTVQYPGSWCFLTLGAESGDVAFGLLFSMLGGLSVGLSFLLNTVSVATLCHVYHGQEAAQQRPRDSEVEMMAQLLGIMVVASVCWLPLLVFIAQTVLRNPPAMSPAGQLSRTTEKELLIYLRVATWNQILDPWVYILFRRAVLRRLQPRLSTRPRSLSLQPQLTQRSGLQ
Experiment: Binding test: displacement of [3H]SQ-29.548 from human platelet thromboxane A2 receptors
Details: for inhibition at 1 µM: read-out: Affinity: percent of [3H]SQ-29.548 specifically substituted by the examined compound, compound 10^-6 M; for inhibition at 0.1 µM: read-out: Affinity: percent of [3H]SQ-29.548 specifically substituted by the examined compound, compound 10^-7 M
Description: To operate a first selection, the capacity of these compounds to displace in a specific way a tritium ligand, the [^3H]
Cozzi P., Giordani A., Menichincheri M., Pillan A., Pinciroli V., Rossi A., Tonani R., Volpi D., Tamburin M., Ferrario R., Fusar D., Salvati P.,—Agents combining thromboxane receptor antagonism with thromboxane synthase inhibition:[[[2-(1H-imidazol-1-yl)ethylidene]amino]oxy]alkanoic acids.—J. Med. Chem., 1994, 37, 3588-3604.

[1] = read-out: IC 50: concentration required for replacing 50% of [3H]SQ-29.548 bound to receptors TPα

Affinity: percent of [3H]SQ-29.548 specifically substituted by the examined compound, 10^-6M [%]	Affinity: percent of [3H]SQ-29.548 specifically substituted by the examined compound, 10^-7M [%]	Structure (SMILES)	other results
93.6	68.0	CC(C)NC(=O)NS(=O)(=O)c1cc([N+](=O)[O-])ccc1NC1CCCCCC1 [Compound 1]	–
67.7	–	CC(C)NC(=O)NS(=O)(=O)c1cc([N+](=O)[O-])ccc1NC1CCCC1 [Compound 2]	–
42.9	–	CC(C)NC(=NC#N)NS(=O)(=O)c1cc([N+](=O)[O-])ccc1NC1CCCCC1 [Compound 7]	–
33.0	–	CC(C)NC(=NC#N)NS(=O)(=O)c1cc([N+](=O)[O-])ccc1NC1CCCCCC1 [Compound 8]	–
15.4	–	CC(C)NC(=NC#N)NS(=O)(=O)c1cc([N+](=O)[O-])ccc1NC1CCCCCCC1 [Compound 9]	–
67.2	–	CC(C)NC(=S)NS(=O)(=O)c1cc([N+](=O)[O-])ccc1NC1CCCCCC1 [Compound 12]	–
97.7	60.3	CC(C)NC(=O)NS(=O)(=O)c1cc([N+](=O)[O-])ccc1NC1CCCCC1 [Compound 13]	–
92.9	34.0	CC(C)NC(=S)NS(=O)(=O)c1cc([N+](=O)[O-])ccc1NC1CCCCC1 [Compound 14]	–
81.0	16.6	CC(C)NC(=S)NS(=O)(=O)c1cc([N+](=O)[O-])ccc1NC1CCCCCCC1 [Compound 15]	–
100	46.1	O=[N+]([O-])c1ccc(NC2CCCCC2)c(S(=O)(=O)NC(=S)NC2CCCCC2)c1 [Compound 16]	–
79.6	–	CCNC(=O)NS(=O)(=O)c1cc([N+](=O)[O-])ccc1NC1CCCCC1 [Compound 27]	–
81.9	39.6	CCNC(=O)NS(=O)(=O)c1cc([N+](=O)[O-])ccc1NC1CCCCCC1 [Compound 28]	–
86.7	46.0	C=CCNC(=O)NS(=O)(=O)c1cc([N+](=O)[O-])ccc1NC1CCCCC1 [Compound 32]	–
86.6	52.4	C=CCNC(=O)NS(=O)(=O)c1cc([N+](=O)[O-])ccc1NC1CCCCCC1 [Compound 33]	–
45.0	–	CCCNc1ccc([N+](=O)[O-])cc1S(=O)(=O)NC(=S)NC(C)C [Compound 35]	–
72.3	–	CC(C)NC(=S)NS(=O)(=O)c1cc([N+](=O)[O-])ccc1NC1CCCC1 [Compound 37]	–
77.2	–	CC(C)NC(=S)NS(=O)(=O)c1cc([N+](=O)[O-])ccc1NC1CCCCC1 [Compound 38]	–
74.5	–	CCNC(=S)NS(=O)(=O)c1cc([N+](=O)[O-])ccc1NC1CCCCCC1 [Compound 39]	–
75.9	–	O=[N+]([O-])c1ccc(NC2CCCCCCC2)c(S(=O)(=O)NC(=S)NC2CCCCC2)c1 [Compound 41]	–
92.3	50.5	O=[N+]([O-])c1ccc(NC2CCCCC2)c(S(=O)(=O)NC(=S)NCc2ccco2)c1 [Compound 42]	–
50.0	–	CC(C)NC(=O)NS(=O)(=O)c1cc(C#N)ccc1NC1CCCCC1 [Compound 43]	–
80.2	51.3	CCNC(=O)NS(=O)(=O)c1cc([N+](=O)[O-])ccc1NC1CCCCCCC1 [Compound 44]	–
79.9	50.4	CCOC(=O)NS(=O)(=O)c1cc([N+](=O)[O-])ccc1NC1CCCC1 [Compound 45]	–
51.9	–	CC(C)NC(=O)NS(=O)(=O)c1cc([N+](=O)[O-])ccc1NC1CCCCCCCCCCC1 [Compound 48]	–

Second part, the molecule before the results:

Structure (SMILES)	Affinity: percent of [3H]SQ-29.548 specifically substituted by the examined compound, 10^-6M [%]	Affinity: percent of [3H]SQ-29.548 specifically substituted by the examined compound, 10^-7M [%]	other results
CC(C)NC(=O)NS(=O)(=O)c1cc([N+](=O)[O-])ccc1NC(C)c1ccccc1 (racemic) [Compound 75]	93.1	–	–
CC(Nc1ccc([N+](=O)[O-])cc1S(=O)(=O)NC(=O)NC(C)(C)C)c1ccccc1 (racemic) [Compound 76]	–	–	IC50: 3.5 nM; inhibition at 1 µM: 97.6%; inhibition at 0.1 µM: 93.5%
Cc1cccc(Nc2ccc([N+](=O)[O-])cc2S(=O)(=O)NC(=NC#N)NC(C)C)c1 [Compound 3]	20.1	–	–
N#CN=C(NC1CCCCC1)NS(=O)(=O)c1cc([N+](=O)[O-])ccc1NC1CCCC1 [Compound 4]	50.0	–	–
N#CN=C(NC1CCCCC1)NS(=O)(=O)c1cc([N+](=O)[O-])ccc1NC1CCCCC1 [Compound 5]	72.1	–	–
Cc1cccc(Nc2ccc([N+](=O)[O-])cc2S(=O)(=O)NC(=NC#N)NC2CCCCC2)c1 [Compound 6]	29.8	–	–
Cc1cccc(Nc2ccc([N+](=O)[O-])cc2S(=O)(=O)NC(=C[N+](=O)[O-])NC2CCCCC2)c1 [Compound 10]	57.7	–	–
Cc1cccc(Nc2ccc([N+](=O)[O-])cc2S(=O)(=O)NC(=S)NC(C)C)c1 [Compound 11]	63.7	–	–
Cc1cccc(Nc2ccc([N+](=O)[O-])cc2S(=O)(=O)NC(=O)NC(C)(C)C)c1 [Compound 19]	97.8	93.3	IC50 [1]: 3.96 nM
CCCNc1ccc([N+](=O)[O-])cc1S(=O)(=O)NC(=O)NC(C)C [Compound 20]	1.6	–	–
CC(C)NC(=O)NS(=O)(=O)c1cc([N+](=O)[O-])ccc1NCc1ccccc1 [Compound 21]	92.2	44.2	–
O=C(NC1CCCCC1)NS(=O)(=O)c1cc([N+](=O)[O-])ccc1NC1CCCCCCC1 [Compound 23]	95.5	62.9	–
Cc1cccc(Nc2ccc(C#N)cc2S(=O)(=O)NC(=O)NC(C)C)c1 [Compound 24]	73.7	–	–
CC(C)(C)NC(=O)NS(=O)(=O)c1cc([N+](=O)[O-])ccc1NC1CCCCCCC1 [Compound 26]	–	–	IC50: 16.9 nM; inhibition at 1 µM: 94.3%; inhibition at 0.1 µM: 93.3%
Cc1ccccc1Nc1ccc([N+](=O)[O-])cc1S(=O)(=O)NC(=O)NC(C)C [Compound 30]	95.1	80.8	–
C=CCNC(=O)NS(=O)(=O)c1cc([N+](=O)[O-])ccc1Nc1ccccc1 [Compound 31]	80.5	42.2	–
C=CCNC(=O)NS(=O)(=O)c1cc([N+](=O)[O-])ccc1NC1CCCCCCC1 [Compound 34]	77.3	–	–
CC(C)NC(=S)NS(=O)(=O)c1cc([N+](=O)[O-])ccc1NCc1ccccc1 [Compound 36]	75.6	–	–
Cc1cccc(Nc2ccc([N+](=O)[O-])cc2S(=O)(=O)NC(=O)NC(C)C)c1C [Compound 49]	–	–	IC50: 2 nM; inhibition at 1 µM: 98.3%; inhibition at 0.1 µM: 94.9%
Cc1ccc(Nc2ccc([N+](=O)[O-])cc2S(=O)(=O)NC(=O)NC(C)C)cc1 [Compound 50]	95.7	76.0	–
Cc1cccc(Nc2ccc([N+](=O)[O-])cc2S(=O)(=O)NC(=NC#N)NC(C)(C)C)c1 [Compound 51]	64.7	–	–
Cc1ccccc1Nc1ccc([N+](=O)[O-])cc1S(=O)(=O)NC(=O)NC(C)(C)C [Compound 52]	99.0	93.9	IC50 [1]: 2.8 nM
